Experimental data from ChEMBL document CHEMBL1121623, “Thrombin inhibitors. 3. Carboxyl-containing amide derivatives of N alpha-substituted L-arginine” (J Med Chem, 1980).

Assays:
[1] = biological target: T1, Prothrombin (Bos taurus, UniProt P00735); assay: (§1) Concentration at which the clotting time was prolonged by twice that of the control by inhibiting thrombin; type: functional; conditions: read-out: I50
[2] = biological target: T1, Prothrombin; assay: as §1; conditions: read-out: I50

Structure (SMILES) | IC50 [1] [µM] | IC50 [2] [µM]
COCCN(CC(=O)O)C(=O)C(CCCN=C(N)N)NS(=O)(=O)c1ccc2c(c1)-c1ccccc1C2 (stereo unspecified) | 0.4 | 
CC1CCN(C(=O)C(CCCN=C(N)N)NS(=O)(=O)c2cccc3c(N(C)C)cccc23)C(C(=O)O)C1 (stereo unspecified) |  | 4
COc1ccc2ccc(S(=O)(=O)NC(CCCN=C(N)N)C(=O)N3CCCCC3C(=O)O)cc2c1 (stereo unspecified) |  | 5
COc1cc2ccc(S(=O)(=O)NC(CCCN=C(N)N)C(=O)N(C)CC(=O)O)cc2cc1OC (stereo unspecified) |  | > 100
CCC1CCN(C(=O)C(CCCN=C(N)N)NS(=O)(=O)c2ccc3cc(OC)c(OC)cc3c2)C(C(=O)O)C1 (stereo unspecified) | 0.25 | 
CCCCN(CC(=O)O)C(=O)C(CCCN=C(N)N)NS(=O)(=O)c1ccc2ccc(C)cc2c1 (stereo unspecified) |  | 0.3
COc1cc2ccc(S(=O)(=O)NC(CCCN=C(N)N)C(=O)N(CC(=O)O)CC(C)C)cc2cc1OC (stereo unspecified) |  | 2
COCCN(CC(=O)O)C(=O)C(CCCN=C(N)N)NS(=O)(=O)c1cccc2c(N(C)C)cccc12 (stereo unspecified) |  | 5
Cc1ccc2ccc(S(=O)(=O)NC(CCCN=C(N)N)C(=O)N(CC(=O)O)CC3CCCO3)cc2c1 (stereo unspecified) |  | 0.2
CC(C)C1CCN(C(=O)C(CCCN=C(N)N)NS(=O)(=O)c2ccc3cc(Cl)ccc3c2)C(C(=O)O)C1 (stereo unspecified) |  | 0.5
COCCN(CC(=O)O)C(=O)C(CCCN=C(N)N)NS(=O)(=O)c1ccc2ccc(OC)cc2c1 (stereo unspecified) |  | 0.5
CCOc1cc2ccc(S(=O)(=O)NC(CCCN=C(N)N)C(=O)N(CCOC)CC(=O)O)cc2cc1OCC (stereo unspecified) |  | 15
COCCN(CC(=O)O)C(=O)C(CCCN=C(N)N)NS(=O)(=O)c1cccc2cc(C)c(C)cc12 (stereo unspecified) |  | 10
CC1CCN(C(=O)C(CCCN=C(N)N)NS(=O)(=O)c2cccc3ccccc23)C(C(=O)O)C1 (stereo unspecified) |  | 1
COCCN(CC(=O)O)C(=O)C(CCCN=C(N)N)NS(=O)(=O)c1ccc2cc(OC)c(OC)cc2c1 (stereo unspecified) |  | 0.3
COCCN(CC(=O)O)C(=O)C(CCCN=C(N)N)NS(=O)(=O)c1cccc2c1CCCC2 (stereo unspecified) | 10 | 
COc1cc2ccc(S(=O)(=O)NC(CCCN=C(N)N)C(=O)N(CCc3ccccc3)CC(=O)O)cc2cc1OC (stereo unspecified) |  | 3
COc1cc2ccc(S(=O)(=O)NC(CCCN=C(N)N)C(=O)N(CC(=O)O)C3CCCCCC3)cc2cc1OC (stereo unspecified) |  | 15
N=C(N)NCCCC(NS(=O)(=O)c1cccc2c1CCCC2)C(=O)N(CC(=O)O)CC1CCCO1 (stereo unspecified) | 6.5 | 
CCCN(CC(=O)O)C(=O)C(CCCN=C(N)N)NS(=O)(=O)c1ccc2cc(OC)c(OC)cc2c1 (stereo unspecified) |  | 8
CCCCCCCCN(CC(=O)O)C(=O)C(CCCN=C(N)N)NS(=O)(=O)c1ccc2cc(OC)c(OC)cc2c1 (stereo unspecified) |  | > 100

Structure (SMILES) | IC50 [1] [µM] | IC50 [2] [µM]
COc1ccc2cc(S(=O)(=O)NC(CCCN=C(N)N)C(=O)N3CCCCC3C(=O)O)ccc2c1 (stereo unspecified) |  | 100
COCCN(CC(=O)O)C(=O)C(CCCN=C(N)N)NS(=O)(=O)c1ccc2oc3ccccc3c2c1 (stereo unspecified) | 0.35 | 
COc1cc2ccc(S(=O)(=O)NC(CCCN=C(N)N)C(=O)N(CC(=O)O)Cc3ccccc3)cc2cc1OC (stereo unspecified) |  | 2.5
CCSCCN(CC(=O)O)C(=O)C(CCCN=C(N)N)NS(=O)(=O)c1ccc2cc(OC)c(OC)cc2c1 (stereo unspecified) |  | 5
COCCN(CCC(=O)O)C(=O)C(CCCN=C(N)N)NS(=O)(=O)c1ccc2cc(OC)c(OC)cc2c1 (stereo unspecified) |  | 3.7
COc1ccc2ccc(S(=O)(=O)NC(CCCN=C(N)N)C(=O)N3CCCCCC3C(=O)O)cc2c1 (stereo unspecified) | 2.5 | 
CCCCN(CC(=O)O)C(=O)C(CCCN=C(N)N)NS(=O)(=O)c1cccc2c1CCCC2 (stereo unspecified) | 20 | 
CN(C)c1cccc2c(S(=O)(=O)NC(CCCN=C(N)N)C(=O)N(CC(=O)O)CC3CCCO3)cccc12 (stereo unspecified) |  | 2
CCCC1CCN(C(=O)C(CCCN=C(N)N)NS(=O)(=O)c2ccc3cc(OC)c(OC)cc3c2)C(C(=O)O)C1 (stereo unspecified) | 0.5 | 
CCCCN(CC(=O)O)C(=O)C(CCCN=C(N)N)NS(=O)(=O)c1cc(OC)c2cc(OC)ccc2c1 (stereo unspecified) |  | 2
COCCN(CC(=O)O)C(=O)C(CCCN=C(N)N)NS(=O)(=O)c1ccc2sc3ccccc3c2c1 (stereo unspecified) | 0.45 | 
CCCCN(CC(=O)O)C(=O)C(CCCN=C(N)N)NS(=O)(=O)c1cccc2c(N(C)C)cccc12 (stereo unspecified) |  | 4
COc1cc2ccc(S(=O)(=O)NC(CCCN=C(N)N)C(=O)N(CC(=O)O)C3CCCCC3)cc2cc1OC (stereo unspecified) |  | 5
COc1ccc2ccc(S(=O)(=O)NC(CCCN=C(N)N)C(=O)N(CC(=O)O)CC3CCCO3)cc2c1 (stereo unspecified) |  | 0.15
COCCCN(CC(=O)O)C(=O)C(CCCN=C(N)N)NS(=O)(=O)c1ccc2cc(OC)c(OC)cc2c1 (stereo unspecified) |  | 5
COc1cc2ccc(S(=O)(=O)NC(CCCN=C(N)N)C(=O)N(CC(=O)O)CC3CCCO3)cc2cc1OC (stereo unspecified) |  | 0.2
CCC1CCN(C(=O)C(CCCN=C(N)N)NS(=O)(=O)c2ccc3ccc(OC)cc3c2)C(C(=O)O)C1 (stereo unspecified) |  | 0.1
CCCCCN(CC(=O)O)C(=O)C(CCCN=C(N)N)NS(=O)(=O)c1ccc2cc(OC)c(OC)cc2c1 (stereo unspecified) |  | 1
Cc1ccc2cc(S(=O)(=O)NC(CCCN=C(N)N)C(=O)N3CCC(C(C)C)CC3C(=O)O)ccc2c1 (stereo unspecified) |  | 0.35
COc1cc2ccc(S(=O)(=O)NC(CCCN=C(N)N)C(=O)N3CCCC(C(=O)O)C3)cc2cc1OC (stereo unspecified) |  | 40
CC1CCN(C(=O)C(CCCN=C(N)N)NS(=O)(=O)c2cccc3c2CCCC3)C(C(=O)O)C1 (stereo unspecified) |  | 0.6

Structure (SMILES) | IC50 [1] [µM] | IC50 [2] [µM]
COCCN(CC(=O)O)C(=O)C(CCCN=C(N)N)NS(=O)(=O)c1cc(OC)c2cc(OC)ccc2c1 (stereo unspecified) |  | 4
Cc1cc2ccc(S(=O)(=O)NC(CCCN=C(N)N)C(=O)N(CC(=O)O)CC3CCCO3)cc2cc1C (stereo unspecified) |  | 3
Cc1ccc2ccc(S(=O)(=O)NC(CCCN=C(N)N)C(=O)N3CCC(C)CC3C(=O)O)cc2c1 (stereo unspecified) |  | 0.15
CCCCCCN(CC(=O)O)C(=O)C(CCCN=C(N)N)NS(=O)(=O)c1ccc2cc(OC)c(OC)cc2c1 (stereo unspecified) |  | 0.15
COCCN(CC(=O)O)C(=O)C(CCCN=C(N)N)NS(=O)(=O)c1ccc2ccc(C)cc2c1 (stereo unspecified) |  | 0.35
COc1ccc2ccc(S(=O)(=O)NC(CCCN=C(N)N)C(=O)N3CCC(C(C)C)CC3C(=O)O)cc2c1 (stereo unspecified) |  | 0.15
N=C(N)NCCCC(NS(=O)(=O)c1cccc2ccccc12)C(=O)N(CC(=O)O)CC1CCCO1 (stereo unspecified) |  | 30
COCCN(CC(=O)O)C(=O)C(CCCN=C(N)N)NS(=O)(=O)c1cccc2c(OC)cccc12 (stereo unspecified) |  | 2.5
CC1CCN(C(=O)C(CCCN=C(N)N)NS(=O)(=O)c2ccc3c(c2)-c2ccccc2C3)C(C(=O)O)C1 (stereo unspecified) |  | 0.1
CCCCN(CC(=O)O)C(=O)C(CCCN=C(N)N)NS(=O)(=O)c1cccc2c(OC)cccc12 (stereo unspecified) |  | 4
CCCCN(CC(=O)O)C(=O)C(CCCN=C(N)N)NS(=O)(=O)c1ccc2c(c1)CCCC2 (stereo unspecified) | 60 | 
COc1ccc2cc(S(=O)(=O)NC(CCCN=C(N)N)C(=O)N3CCC(C)CC3C(=O)O)cc(OC)c2c1 (stereo unspecified) |  | 0.34
COc1cc2ccc(S(=O)(=O)NC(CCCN=C(N)N)C(=O)N3CCC(C)CC3C(=O)O)cc2cc1OC (stereo unspecified) |  | 0.4
CCCCN(CC(=O)O)C(=O)C(CCCN=C(N)N)NS(=O)(=O)c1ccc2ccccc2c1 (stereo unspecified) |  | > 100
CCCCN(CC(=O)O)C(=O)C(CCCN=C(N)N)NS(=O)(=O)c1ccc2cc(OC)ccc2c1 (stereo unspecified) |  | 0.5
CC(C)C1CCN(C(=O)C(CCCN=C(N)N)NS(=O)(=O)c2ccc3ccccc3c2)C(C(=O)O)C1 (stereo unspecified) |  | 50
COCCN(CC(=O)O)C(=O)C(CCCN=C(N)N)NS(=O)(=O)c1ccc2c(c1)OCCO2 (stereo unspecified) | 32 | 
CCCCN(CC(=O)O)C(=O)C(CCCN=C(N)N)NS(=O)(=O)c1ccc2ccc(OC)cc2c1 (stereo unspecified) |  | 0.5
COCCN(CC(=O)O)C(=O)C(CCCN=C(N)N)NS(=O)(=O)c1ccc2cc3c(cc2c1)OCCO3 (stereo unspecified) | 57 | 
CCCCN(CC(=O)O)C(=O)C(CCCN=C(N)N)NS(=O)(=O)c1ccc2oc3ccccc3c2c1 (stereo unspecified) | 0.3 | 
CC1CCN(C(=O)C(CCCN=C(N)N)NS(=O)(=O)c2cccc3c2oc2ccccc23)C(C(=O)O)C1 (stereo unspecified) | 0.15 | 

Structure (SMILES) | IC50 [1] [µM] | IC50 [2] [µM]
COc1cc2ccc(S(=O)(=O)NC(CCCN=C(N)N)C(=O)N3CCC(C(=O)O)CC3)cc2cc1OC (stereo unspecified) |  | 150
CCOc1cc2ccc(S(=O)(=O)NC(CCCN=C(N)N)C(=O)N3CCC(C)CC3C(=O)O)cc2cc1OCC (stereo unspecified) |  | 4
CCCCN(CC(=O)O)C(=O)C(CCCN=C(N)N)NS(=O)(=O)c1ccc2cc(OC)c(OC)cc2c1 (stereo unspecified) |  | 0.3
COCCN(CCCC(=O)O)C(=O)C(CCCN=C(N)N)NS(=O)(=O)c1ccc2cc(OC)c(OC)cc2c1 (stereo unspecified) |  | 40
COCCN(CC(=O)O)C(=O)C(CCCN=C(N)N)NS(=O)(=O)c1cccc2ccccc12 (stereo unspecified) |  | 30
COc1cc2ccc(S(=O)(=O)NC(CCCN=C(N)N)C(=O)N3C(C(=O)O)CCCC3C(=O)O)cc2cc1OC (stereo unspecified) |  | > 100
COc1cc2ccc(S(=O)(=O)NC(CCCN=C(N)N)C(=O)N3CCc4ccccc4C3C(=O)O)cc2cc1OC (stereo unspecified) | 0.7 | 
CCCCCN(CC(=O)O)C(=O)C(CCCN=C(N)N)NS(=O)(=O)c1cccc2c1CCCC2 (stereo unspecified) | 100 | 
COc1ccc2ccc(S(=O)(=O)NC(CCCN=C(N)N)C(=O)N3CCC(C)CC3C(=O)O)cc2c1 (stereo unspecified) |  | 0.15
CC1CCN(C(=O)C(CCCN=C(N)N)NS(=O)(=O)c2ccc3oc4ccccc4c3c2)C(C(=O)O)C1 (stereo unspecified) | 0.1 | 
COc1cc2ccc(S(=O)(=O)NC(CCCN=C(N)N)C(=O)N3CCC(c4ccccc4)CC3C(=O)O)cc2cc1OC (stereo unspecified) | 12 | 
CC1CCN(C(=O)C(CCCN=C(N)N)NS(=O)(=O)c2ccc3c(c2)Sc2ccccc2O3)C(C(=O)O)C1 (stereo unspecified) | 0.25 | 
COCCN(CC(=O)O)C(=O)C(CCCN=C(N)N)NS(=O)(=O)c1ccc2c(c1)Sc1ccccc1O2 (stereo unspecified) | 0.35 | 
COc1cc2ccc(S(=O)(=O)NC(CCCN=C(N)N)C(=O)N3Cc4ccccc4C3C(=O)O)cc2cc1OC (stereo unspecified) | 1.5 | 
COCCN(C(=O)C(CCCN=C(N)N)NS(=O)(=O)c1ccc2cc(OC)c(OC)cc2c1)C(C)C(=O)O (stereo unspecified) |  | 5
COc1cc2ccc(S(=O)(=O)NC(CCCN=C(N)N)C(=O)N3CCCCC3C(=O)O)cc2cc1OC (stereo unspecified) |  | 4.5
COc1cc2ccc(S(=O)(=O)NC(CCCN=C(N)N)C(=O)N(CC(=O)O)CC3CCCCC3)cc2cc1OC (stereo unspecified) |  | 15
Cc1ccc2ccc(S(=O)(=O)NC(CCCN=C(N)N)C(=O)N3CCC(C(C)C)CC3C(=O)O)cc2c1 (stereo unspecified) |  | 0.1
